Patent publication US12478680B2, “Hydrogels with biodegradable crosslinking” (ProLynx LLC, priority 2011, dated 2025)

Settings: pH 7.4

| t1/2 for release into solution [min] | Substance |
| --- | --- |
| ~20 | myoglobin |
| 24 | carbonic anhydrase |
